Experiment [1] concerns rabbits (New Zealand White). The experiment can be described thus: Ocular hypotensive effect in rabbits. Type of experiment: in vivo, rabbit. As to conditions: Oryctolagus cuniculus, topical, 0.04 mL dropped to one eye, vehicle to contralateral eye, test compound solution concentration 10 (W/V), read-out: Maximum ocular hypotensive rate. As to the method: The compound of the present invention was administered to rabbits (New Zealand White, sex: male, 3 to 7 per group) and evaluated for its ocular hypotensive effect.
Each test compound was dissolved in a vehicle (1.04 g of sodium dihydrogen phosphate dihydrate and 0.5 g of sodium chloride dissolved in purified water and then adjusted to pH 7.0 with sodium hydroxide to make the total amount to 100 mL) to prepare a test compound solution with a concentration of 10 (W/V).
The intraocular pressures of the rabbits were measured using Tiolat TonoVet handheld tonometer immediately before administration of test compound. The test compound solution and the vehicle were dropped at a volume of 0.04 mL to one eye and the contralateral eye, respectively, and the intraocular pressures were measured over time in the same way as above. The rate of the intraocular pressure of the eye receiving the test compound solution to that of the eye receiving the vehicle was calculated as an ocular hypotensive rate.

The test system of experiment [2] is mouse model of spinal cord injury. The experiment can be described thus: Motor function recovering effect on a spinal cord injury model of the mouse. As to conditions: C57BL/6Cr mice, 3 mg/kg intraperitoneal once a day for 7 days, day 14 after operation, score 0 normal to 72 most serious, saline group 41. The format is in vivo. The protocol:
To examine the usefulness of the compound of the present invention as a therapeutic agent for spinal cord injury, the mouse model of spinal cord injury was prepared and a motor function recovering effect after spinal cord injury was investigated.
Example 14 as a test compound was dissolved in saline and diluted to prepare a test compound solution with a predetermined concentration.
C57BL/6Cr mice (female, body weight: around 19 g, 6 to 8 […] per group) were anesthetized by halothane inhalation. The spinal cord at the level of the eighth thoracic vertebrae was compressed with 20 g of weight for 5 minutes to prepare a spinal cord injury model, according to the method described in the document (Acta Neuropathol. 100, 13-22 (2000)). The test compound was intraperitoneally administered at a dose of 3 mg/kg once a day for 7 consecutive days from the surgery day. After 1, 4, 7, 10, and 14 days from the preparation of the spinal cord injury model, the severity of neurological dysfunction was scored by a partial modification of the performance score described in J. Neurosurg. 93 (Spine 1), 94-101(2000). The details of the behavioral score are as follows:
Open field locomotion (rated 0 to 42)
Toe spread (rated 0 to 5)
Contact place response (rated 0 to 5)
Withdrawal reflexes (rated 0 to 5 for each reflex to extension, pain, and pressure stimulations)
Righting reflex (rated 0 to 5) […]

Where a name gives a salt, the structure may show the parent alone.

Regarding `C[C@@H]1CNCCCCN1S(=O)(=O)c1ccc2cnccc2c1` [Example 14, (R)-6-(2-methyl-1,4-diazocan-1-ylsulfonyl)isoquinoline dihydrochloride], in experiment [1], the inhibition in vivo at 10 % was ≥ 15%. The same compound yielded a neurological dysfunction score in experiment [2] of 33.

These data come from patent publication US8951997B2, “Substituted isoquinoline derivative” (D. Western Therapeutics Institute, Inc., priority 2009, dated 2015).
